{"source": "paper PMC8765048", "about": "(JCI Insight, 2022)", "key": {"SARS-CoV-2 P.2 (Zeta)": {"test_system": "SARS-CoV-2 P.2 (Zeta)", "assay": "microbe, parasite or virus in culture", "format": "cell-based"}, "[1]": {"assay": "Turbidimetric aqueous solubility screening", "format": "physicochemical", "settings": "PBS, pH 7.4, PBS pH 7.4, 2 hours at 37°C, high test concentration 500 μM", "experimental": "Aqueous solubility of sangivamycin was measured using a high-throughput turbidimetric assay performed by Cyprotex. Initially, sangivamycin stock DMSO solution was diluted in DMSO to produce a range of concentrations. These dilutions were added to PBS at pH 7.4 (high test concentration 500 μM) and incubated for 2 hours at 37°C. At the end of the incubation period, the absorbance at 620 nm was measured for each concentration for 2 replicates to determine turbidity from precipitate formation."}, "SARS-CoV-2": {"test_system": "SARS-CoV-2", "assay": "Combinatorial sangivamycin/remdesivir efficacy testing, Caco-2 cells", "format": "cell-based", "settings": "Severe acute respiratory syndrome coronavirus 2, Caco-2; read-out: IC50 (nM), S:R by [Sangivamycin]"}, "CYP2C19": {"target": "T1, CYP2C19 (Homo sapiens, UniProt P33261)", "T1 construct": "along with human liver microsomes (0.5 mg/mL) and cofactors; tissue Cyprotex (performed the assay); host or cells: human liver microsomes", "T1 sequence (P33261 whole entry)": "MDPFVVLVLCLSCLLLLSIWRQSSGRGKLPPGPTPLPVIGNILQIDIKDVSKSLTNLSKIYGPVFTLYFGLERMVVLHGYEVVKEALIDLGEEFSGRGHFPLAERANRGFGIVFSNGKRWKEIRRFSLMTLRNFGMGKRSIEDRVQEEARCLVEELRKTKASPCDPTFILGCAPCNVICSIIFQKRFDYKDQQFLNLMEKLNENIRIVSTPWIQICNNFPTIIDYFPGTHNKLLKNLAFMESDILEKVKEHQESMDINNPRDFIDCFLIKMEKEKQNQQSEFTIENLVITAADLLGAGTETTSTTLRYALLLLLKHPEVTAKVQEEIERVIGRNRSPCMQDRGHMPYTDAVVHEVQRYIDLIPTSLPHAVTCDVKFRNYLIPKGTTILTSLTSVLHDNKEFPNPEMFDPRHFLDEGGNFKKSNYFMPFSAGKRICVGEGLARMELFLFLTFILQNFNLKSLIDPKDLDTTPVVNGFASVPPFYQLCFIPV", "assay": "CYP inhibition testing, human liver microsomes", "format": "in vitro ADME", "experimental": "(§1) Sangivamycin was incubated by Cyprotex with a cocktail of model CYP substrates for CYP1A2, CYP2B6, CYP2C8, CYP2C9, CYP2C19, CYP2D6, CYP3A4, and CYP3A4, along with human liver microsomes (0.5 mg/mL) and cofactors (2.5 mM NADPH and 3.3 mM MgCl2), in 0.1 M phosphate buffer (pH 7.4) for 20 minutes at 37°C. Known CYP inhibitors were used in lieu of sangivamycin as positive controls: furafylin (1A2), thioTEPA (2B6), montelukast (2C8), sulfaphenazole (2C9), nootkatone (2C19), quinidine (2D6), and ketoconazole (3A4). Formation of substrate breakdown metabolites was measured by LC-MS/MS and compared with control incubation (incubation of substrates with microsomes and cofactors but in the absence of sangivamycin or in the presence of known inhibitors). CYP inhibition was measured as a decrease in the formation of expected metabolites in the presence of sangivamycin or control inhibitor (defined as a percentage of control)."}, "CYP3A4": {"target": "T2, CYP3A4 (Homo sapiens, UniProt P08684)", "T2 construct": "along with human liver microsomes (0.5 mg/mL) and cofactors; tissue Cyprotex (performed the assay); host or cells: human liver microsomes", "T2 sequence (P08684 whole entry)": "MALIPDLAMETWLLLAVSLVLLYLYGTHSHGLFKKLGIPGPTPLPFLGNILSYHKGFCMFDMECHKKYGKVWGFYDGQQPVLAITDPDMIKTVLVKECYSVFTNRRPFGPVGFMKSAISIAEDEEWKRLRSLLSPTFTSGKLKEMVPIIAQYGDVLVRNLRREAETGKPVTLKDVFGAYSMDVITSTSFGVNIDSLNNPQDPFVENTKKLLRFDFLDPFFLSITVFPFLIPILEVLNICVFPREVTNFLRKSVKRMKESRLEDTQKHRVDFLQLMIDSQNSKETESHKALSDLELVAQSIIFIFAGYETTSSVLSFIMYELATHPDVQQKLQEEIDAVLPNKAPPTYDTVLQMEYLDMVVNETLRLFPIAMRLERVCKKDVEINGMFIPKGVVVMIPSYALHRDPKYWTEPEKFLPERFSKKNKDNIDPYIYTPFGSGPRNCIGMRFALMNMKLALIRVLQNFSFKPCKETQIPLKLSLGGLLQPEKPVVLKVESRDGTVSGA", "assay": "CYP inhibition testing, human liver microsomes", "format": "in vitro ADME", "experimental": "as §1"}, "CYP2B6": {"target": "T3, CYP2B6 (Homo sapiens, UniProt P20813)", "T3 construct": "along with human liver microsomes (0.5 mg/mL) and cofactors; tissue Cyprotex (performed the assay); host or cells: human liver microsomes", "T3 sequence (P20813 whole entry)": "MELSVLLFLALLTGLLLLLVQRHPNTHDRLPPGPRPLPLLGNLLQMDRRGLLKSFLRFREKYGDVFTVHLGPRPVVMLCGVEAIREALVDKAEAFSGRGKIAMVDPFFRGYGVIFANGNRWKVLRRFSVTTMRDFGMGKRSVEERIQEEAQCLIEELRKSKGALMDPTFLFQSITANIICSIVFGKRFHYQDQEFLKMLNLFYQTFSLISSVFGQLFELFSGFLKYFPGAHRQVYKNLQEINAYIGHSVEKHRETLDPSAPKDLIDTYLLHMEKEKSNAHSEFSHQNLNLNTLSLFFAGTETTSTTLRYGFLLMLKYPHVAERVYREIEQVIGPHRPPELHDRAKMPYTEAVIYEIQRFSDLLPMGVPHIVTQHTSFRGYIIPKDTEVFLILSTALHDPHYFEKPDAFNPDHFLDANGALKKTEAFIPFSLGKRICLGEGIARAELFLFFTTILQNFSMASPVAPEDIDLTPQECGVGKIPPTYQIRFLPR", "assay": "CYP inhibition testing, human liver microsomes", "format": "in vitro ADME", "experimental": "as §1"}, "CYP1A2": {"target": "T4, CYP1A2 (Homo sapiens, UniProt P05177)", "T4 construct": "along with human liver microsomes (0.5 mg/mL) and cofactors; tissue Cyprotex (performed the assay); host or cells: human liver microsomes", "T4 sequence (P05177 whole entry)": "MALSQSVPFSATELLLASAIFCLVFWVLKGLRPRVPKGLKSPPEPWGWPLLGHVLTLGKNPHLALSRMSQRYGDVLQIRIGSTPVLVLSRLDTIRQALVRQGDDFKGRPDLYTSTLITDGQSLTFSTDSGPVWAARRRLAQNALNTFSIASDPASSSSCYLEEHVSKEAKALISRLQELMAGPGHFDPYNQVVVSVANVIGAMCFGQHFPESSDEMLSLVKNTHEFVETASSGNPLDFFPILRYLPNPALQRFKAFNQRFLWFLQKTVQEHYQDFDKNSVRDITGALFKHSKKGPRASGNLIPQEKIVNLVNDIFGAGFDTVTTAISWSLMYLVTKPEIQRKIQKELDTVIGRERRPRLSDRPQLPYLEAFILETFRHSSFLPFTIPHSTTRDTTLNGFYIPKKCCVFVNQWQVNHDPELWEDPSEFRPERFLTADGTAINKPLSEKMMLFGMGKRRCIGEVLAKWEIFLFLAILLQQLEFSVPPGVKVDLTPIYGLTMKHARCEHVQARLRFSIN", "assay": "CYP inhibition testing, human liver microsomes", "format": "in vitro ADME", "experimental": "as §1"}, "CYP2C8": {"target": "T5, CYP2C8 (Homo sapiens, UniProt P10632)", "T5 construct": "along with human liver microsomes (0.5 mg/mL) and cofactors; tissue Cyprotex (performed the assay); host or cells: human liver microsomes", "T5 sequence (P10632 whole entry)": "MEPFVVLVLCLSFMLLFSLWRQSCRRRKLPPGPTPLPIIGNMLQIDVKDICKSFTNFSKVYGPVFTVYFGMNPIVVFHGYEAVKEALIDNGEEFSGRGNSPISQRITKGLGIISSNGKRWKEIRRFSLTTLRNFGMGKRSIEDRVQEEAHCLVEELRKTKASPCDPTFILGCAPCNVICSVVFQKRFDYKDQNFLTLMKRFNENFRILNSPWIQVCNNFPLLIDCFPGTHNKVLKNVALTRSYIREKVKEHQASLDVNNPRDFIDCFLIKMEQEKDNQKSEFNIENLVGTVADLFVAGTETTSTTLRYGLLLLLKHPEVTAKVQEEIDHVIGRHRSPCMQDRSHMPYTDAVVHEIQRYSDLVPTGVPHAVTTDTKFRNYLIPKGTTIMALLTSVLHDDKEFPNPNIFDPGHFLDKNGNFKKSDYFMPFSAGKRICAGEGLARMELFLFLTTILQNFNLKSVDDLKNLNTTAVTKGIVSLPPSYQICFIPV", "assay": "CYP inhibition testing, human liver microsomes", "format": "in vitro ADME", "experimental": "as §1"}, "CYP2D6": {"target": "T6, CYP2D6 (Homo sapiens, UniProt P10635)", "T6 construct": "along with human liver microsomes (0.5 mg/mL) and cofactors; tissue Cyprotex (performed the assay); host or cells: human liver microsomes", "T6 sequence (P10635 whole entry)": "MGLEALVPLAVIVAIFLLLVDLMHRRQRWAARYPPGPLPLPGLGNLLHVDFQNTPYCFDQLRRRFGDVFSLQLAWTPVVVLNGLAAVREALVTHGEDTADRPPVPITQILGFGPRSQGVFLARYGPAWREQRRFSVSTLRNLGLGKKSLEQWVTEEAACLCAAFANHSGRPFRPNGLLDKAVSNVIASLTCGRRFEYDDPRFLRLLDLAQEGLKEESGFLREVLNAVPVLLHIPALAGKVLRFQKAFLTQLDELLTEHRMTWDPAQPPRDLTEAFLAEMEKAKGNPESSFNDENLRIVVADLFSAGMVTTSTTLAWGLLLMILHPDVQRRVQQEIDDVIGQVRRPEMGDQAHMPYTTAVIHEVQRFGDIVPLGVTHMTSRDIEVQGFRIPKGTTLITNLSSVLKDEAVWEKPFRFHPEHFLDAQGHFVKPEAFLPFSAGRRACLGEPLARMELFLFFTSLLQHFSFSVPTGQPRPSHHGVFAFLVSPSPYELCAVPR", "assay": "CYP inhibition testing, human liver microsomes", "format": "in vitro ADME", "experimental": "as §1"}, "CYP2C9": {"target": "T7, CYP2C9 (Homo sapiens, UniProt P11712)", "T7 construct": "along with human liver microsomes (0.5 mg/mL) and cofactors; tissue Cyprotex (performed the assay); host or cells: human liver microsomes", "T7 sequence (P11712 whole entry)": "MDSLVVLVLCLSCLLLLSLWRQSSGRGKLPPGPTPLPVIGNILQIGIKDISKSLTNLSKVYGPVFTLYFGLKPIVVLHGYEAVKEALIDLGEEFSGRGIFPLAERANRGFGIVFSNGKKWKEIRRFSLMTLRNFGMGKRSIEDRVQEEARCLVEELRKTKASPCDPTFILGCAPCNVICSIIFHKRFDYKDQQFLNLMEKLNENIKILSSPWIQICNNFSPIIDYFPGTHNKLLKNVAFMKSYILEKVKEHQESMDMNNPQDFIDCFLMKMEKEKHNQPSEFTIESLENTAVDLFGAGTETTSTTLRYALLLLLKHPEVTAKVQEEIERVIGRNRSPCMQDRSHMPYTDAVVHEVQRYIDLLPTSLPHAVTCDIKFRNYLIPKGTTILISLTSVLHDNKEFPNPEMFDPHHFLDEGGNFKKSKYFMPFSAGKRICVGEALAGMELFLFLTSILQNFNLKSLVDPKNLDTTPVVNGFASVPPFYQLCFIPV", "assay": "CYP inhibition testing, human liver microsomes", "format": "in vitro ADME", "experimental": "as §1"}, "[2]": {"test_system": "Huh-7 (human hepatocarcinoma)", "assay": "CellTox Green Cytotoxicity Assay", "settings": "ratio > 1 cytostatic, ≤ 1 cytotoxic"}, "[3]": {"test_system": "SARS-CoV-2 B.1.351 (Beta)", "assay": "microbe, parasite or virus in culture", "format": "cell-based"}, "SARS-CoV-2 P.1 (Gamma)": {"test_system": "SARS-CoV-2 P.1 (Gamma)", "assay": "microbe, parasite or virus in culture", "format": "cell-based"}, "[4]": {"test_system": "Calu-3 (human lung adenocarcinoma)", "assay": "CellTox Green Cytotoxicity Assay", "settings": "ratio > 1 cytostatic, ≤ 1 cytotoxic"}, "[5]": {"test_system": "SARS-CoV-2 B.1.1.7 (Alpha)", "assay": "microbe, parasite or virus in culture", "format": "cell-based"}, "grivets": {"test_system": "grivets", "settings": "10 days at 1.6 mg/kg/d and 28 days at 0.4 mg/kg/d; cited from earlier work"}, "[6]": {"assay": "Plasma protein binding assessment (equilibrium dialysis)", "format": "in vitro ADME", "settings": "37°C", "experimental": "The plasma protein binding assay was performed by Cyprotex to assess sangivamycin plasma protein binding. Equilibrium dialysis was used to determine the extent of binding of a compound to plasma proteins. A semipermeable membrane separated a protein-containing compartment (PC) from a protein-free compartment (PF). The system was set to equilibrate at 37°C. The test compound present in each compartment was then quantified by LC-MS/MS. The extent of binding is reported as a fraction unbound (fu) value, which is calculated as fu = 1 – ([PC – PF]/PC)."}, "Huh-7 cells": {"test_system": "Huh-7 cells", "assay": "Mitochondrial dye cell imaging (MTG, NAO)", "format": "cell-based, human", "settings": "100 nM for 5 d, MTG and NAO", "excerpt": "Other important measures of cell viability are mitochondrial integrity, function, cardiotoxicity, and genotoxicity, since other nucleoside analogs may vary in their effect on these endpoints ([29], [30]). Dyes commonly used to assess mitochondrial integrity are MitoTracker Green (MTG), a mitochondrial stain mostly localized to mitochondria based on hydrophobicity, and N-alkyl acridine orange (NAO), which binds to mitochondrial cardiolipin. Untreated Huh-7 cells and Huh-7 cells treated for 5 days with 100 nM sangivamycin were stained with MTG and NAO and imaged by fluorescence microscopy. […] To more quantitatively assess the impact of sangivamycin on mitochondrial integrity, we evaluated the effect of sangivamycin on mitochondrial metabolic function as well as cytoplasmic glycolytic function. The XF96e Seahorse instrument was used to quantify the oxygen consumption rate (OCR) over time in untreated control and sangivamycin-treated Huh-7 cells. […] Standard metabolic endpoints quantified with or without sangivamycin included sequential treatment and washout of cell cultures with oligomycin (ATP synthase inhibitor), carbonyl cyanide 4-(trifluoromethoxy)phenylhydrazone (FCCP; a proton gradient uncoupler), and antimycin A + rotenone (complex I and III blockers) (Supplemental Figure 7).\nHuh-7 cells were untreated or treated with 100 nM sangivamycin for 5 days. […]"}, "[7]": {"settings": "Severe acute respiratory syndrome coronavirus 2, Calu-3, 24 h"}, "[8]": {"settings": "Severe acute respiratory syndrome coronavirus 2, Calu-3, 48 h"}}, "note": "pIC50: −log10 of the molar value.", "data": [{"smiles": "NC(=O)c1cn([C@@H]2O[C@H](CO)[C@@H](O)[C@H]2O)c2ncnc(N)c12", "note": "[Sangivamycin, sangivamycin]", "values": [{"measurement": "SI (selectivity index, CC50/IC50)", "setting": "SARS-CoV-2 P.2 (Zeta); P.2 (Zeta), Calu-3 cells", "value": ">15.2"}, {"measurement": "pIC50", "setting": "SARS-CoV-2 P.2 (Zeta); [7]", "value": 7.40}, {"measurement": "IC90", "setting": "SARS-CoV-2 P.2 (Zeta); [7]", "value": 122, "unit": "nM"}, {"measurement": "solubility at 2 h", "setting": "[1]", "value": "≥ 500", "unit": "µM"}, {"measurement": "IC50", "setting": "SARS-CoV-2", "value": 39, "unit": "nM"}, {"measurement": "pIC50", "setting": "CYP2C19", "value": "< 4.00"}, {"measurement": "pIC50", "setting": "CYP3A4", "value": "< 4.00"}, {"measurement": "pIC50", "setting": "CYP2B6", "value": "< 4.00"}, {"measurement": "pIC50", "setting": "CYP1A2", "value": "< 4.00"}, {"measurement": "pIC50", "setting": "CYP2C8", "value": "< 4.00"}, {"measurement": "pIC50", "setting": "CYP2D6", "value": "< 4.00"}, {"measurement": "pIC50", "setting": "CYP2C9", "value": "< 4.00"}, {"measurement": "Ratio CellTox Green/CellTiter-Glo", "setting": "[2]", "value": ">10.3"}, {"measurement": "SI (selectivity index, CC50/IC50)", "setting": "[3]; B.1.351 (Beta), Calu-3 cells", "value": ">10.1"}, {"measurement": "pIC50", "setting": "[3]; [8]", "value": 7.23}, {"measurement": "IC90", "setting": "[3]; [8]", "value": 135, "unit": "nM"}, {"measurement": "SI (selectivity index, CC50/IC50)", "setting": "SARS-CoV-2 P.1 (Gamma); P.1 (Gamma), Calu-3 cells", "value": ">9.5"}, {"measurement": "pIC50", "setting": "SARS-CoV-2 P.1 (Gamma); [7]", "value": 7.20}, {"measurement": "IC90", "setting": "SARS-CoV-2 P.1 (Gamma); [7]", "value": 204, "unit": "nM"}, {"measurement": "Ratio CellTox Green/CellTiter-Glo", "setting": "[4]", "value": ">15.5"}, {"measurement": "SI (selectivity index, CC50/IC50)", "setting": "[5]; B.1.1.7 (Alpha), Calu-3 cells", "value": ">10.1"}, {"measurement": "pIC50", "setting": "[5]; [7]", "value": 7.23}, {"measurement": "IC90", "setting": "[5]; [7]", "value": 522, "unit": "nM"}, {"measurement": "tolerability", "setting": "grivets", "value": "tolerated"}, {"measurement": "fraction unbound", "setting": "[6]; human", "value": 0.83}, {"measurement": "fraction unbound", "setting": "[6]; mouse", "value": 0.879}, {"measurement": "Effect on mitochondrial integrity (imaging with mitochondrial dyes)", "setting": "Huh-7 cells", "value": "Negative"}, {"measurement": "Effect on mitochondrial integrity (imaging with mitochondrial dyes)", "setting": "Huh-7 cells; listed as sangivamycin", "value": "did not significantly affect mitochondrial structural integrity"}]}]}
